Consider five compounds from patent publication US8735321B2, “Process for the production of particles comprising active agrochemical ingredients in amorphous form” (priority 2008, dated 2014).

The structures appear in SMILES notation.

This data set in a line: crystal formation of active ingredient mixtures from acetone after one week storage at 20° C. The conditions noted are these: stored one week at 20° C. Format: physicochemical. The method, then: The active ingredients were dissolved in acetone (see Table 1) and combined to give the mixing ratios (Table 2). The acetone was evaporated for two days at room temperature and then stripped off in vacuum for 5 h at 80° C. (method A). Temperature-insensitive active ingredients Were subsequently melted for an additional 15 h at 140° C. (method B). The samples were cooled to 20° C. in each case and stored for one week at 20° C.

[1] abbreviates: method B (as A, then melted 15 h at 140° C.).

For `Cn1cc(C(=O)Nc2ccccc2-c2cc(F)c(F)c(F)c2)c(C(F)F)n1` [Fungicide A, N-(3′,4′,5′-trifluorobiphenyl-2-yl)-3-difluoromethyl-1-methyl-1H-pyrazole-4-carboxamide], the Crystal formation result under setting [1] was “Yes”.

For `O=C(Nc1ccccc1-c1ccc(Cl)cc1)c1cccnc1Cl` [Boscalid], under setting [1], the Crystal formation result was “Yes”. Regarding `Fc1ccc([C@]2(Cn3cncn3)O[C@H]2c2ccccc2Cl)cc1` (racemic) [Epoxiconazole], the Crystal formation result under setting [1] is reported as “Yes”.

For `CC1(C)CCC(=Cc2ccc(Cl)cc2)C1(O)Cn1cncn1` (centres unmarked) [Triticonazole], the Crystal formation result under setting [1] is reported as “Yes”. With `COCC(=O)N(c1c(C)cccc1C)C(C)C(=O)OC` (centres unmarked) [Metalaxyl], the Crystal formation entry (method A (acetone evaporated, vacuum 5 h at 80° C.)) is on record as “Yes”.
